According to ChEMBL document CHEMBL3098003, “Structure-based design of 2-aminopyridine oxazolidinones as potent and selective tankyrase inhibitors” (ACS Med Chem Lett, 2013):
pIC50: −log10 of the molar value. Activity calls are given as the source filed them. The calls are words filed in the database; no cut-off is given here.

Columns and labels:
[1] = target: T1, Tankyrase 1/2 (Homo sapiens, UniProt Q9H2K2+O95271); test: Inhibition of tankyrase in human SW480 cells assessed as degradation of total beta-catenin after 40 to 48 hrs; type: cell-based
T1 sequence (Q9H2K2 whole entry): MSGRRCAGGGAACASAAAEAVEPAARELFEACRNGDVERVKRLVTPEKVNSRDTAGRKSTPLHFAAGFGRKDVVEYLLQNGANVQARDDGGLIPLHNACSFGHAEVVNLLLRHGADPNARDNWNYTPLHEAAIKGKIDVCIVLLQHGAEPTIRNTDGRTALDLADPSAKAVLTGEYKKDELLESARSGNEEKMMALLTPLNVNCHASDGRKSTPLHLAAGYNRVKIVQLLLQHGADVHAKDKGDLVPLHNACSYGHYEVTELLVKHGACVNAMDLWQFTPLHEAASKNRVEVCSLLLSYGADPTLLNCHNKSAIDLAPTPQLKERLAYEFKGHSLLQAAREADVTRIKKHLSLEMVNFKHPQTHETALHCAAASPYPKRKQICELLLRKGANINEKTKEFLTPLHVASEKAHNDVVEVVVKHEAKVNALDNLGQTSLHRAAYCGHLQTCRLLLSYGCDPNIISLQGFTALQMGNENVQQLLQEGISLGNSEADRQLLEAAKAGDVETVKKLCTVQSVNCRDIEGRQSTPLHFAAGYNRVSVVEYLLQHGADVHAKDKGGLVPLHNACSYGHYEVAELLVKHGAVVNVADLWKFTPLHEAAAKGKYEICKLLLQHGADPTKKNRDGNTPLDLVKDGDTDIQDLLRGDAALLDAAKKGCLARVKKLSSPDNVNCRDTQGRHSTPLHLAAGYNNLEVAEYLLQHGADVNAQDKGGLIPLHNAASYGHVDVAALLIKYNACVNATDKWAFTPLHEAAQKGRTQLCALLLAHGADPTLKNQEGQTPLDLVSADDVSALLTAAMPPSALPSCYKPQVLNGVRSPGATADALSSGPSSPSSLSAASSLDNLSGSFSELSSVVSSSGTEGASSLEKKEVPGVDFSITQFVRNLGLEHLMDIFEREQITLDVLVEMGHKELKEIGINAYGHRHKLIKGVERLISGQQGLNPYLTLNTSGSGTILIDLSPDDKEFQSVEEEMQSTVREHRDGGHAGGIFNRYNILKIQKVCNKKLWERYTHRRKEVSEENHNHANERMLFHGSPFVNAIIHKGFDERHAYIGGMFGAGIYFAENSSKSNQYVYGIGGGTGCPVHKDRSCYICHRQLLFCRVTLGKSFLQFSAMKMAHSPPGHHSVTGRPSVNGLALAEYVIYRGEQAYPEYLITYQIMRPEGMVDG
T1 sequence (O95271 whole entry): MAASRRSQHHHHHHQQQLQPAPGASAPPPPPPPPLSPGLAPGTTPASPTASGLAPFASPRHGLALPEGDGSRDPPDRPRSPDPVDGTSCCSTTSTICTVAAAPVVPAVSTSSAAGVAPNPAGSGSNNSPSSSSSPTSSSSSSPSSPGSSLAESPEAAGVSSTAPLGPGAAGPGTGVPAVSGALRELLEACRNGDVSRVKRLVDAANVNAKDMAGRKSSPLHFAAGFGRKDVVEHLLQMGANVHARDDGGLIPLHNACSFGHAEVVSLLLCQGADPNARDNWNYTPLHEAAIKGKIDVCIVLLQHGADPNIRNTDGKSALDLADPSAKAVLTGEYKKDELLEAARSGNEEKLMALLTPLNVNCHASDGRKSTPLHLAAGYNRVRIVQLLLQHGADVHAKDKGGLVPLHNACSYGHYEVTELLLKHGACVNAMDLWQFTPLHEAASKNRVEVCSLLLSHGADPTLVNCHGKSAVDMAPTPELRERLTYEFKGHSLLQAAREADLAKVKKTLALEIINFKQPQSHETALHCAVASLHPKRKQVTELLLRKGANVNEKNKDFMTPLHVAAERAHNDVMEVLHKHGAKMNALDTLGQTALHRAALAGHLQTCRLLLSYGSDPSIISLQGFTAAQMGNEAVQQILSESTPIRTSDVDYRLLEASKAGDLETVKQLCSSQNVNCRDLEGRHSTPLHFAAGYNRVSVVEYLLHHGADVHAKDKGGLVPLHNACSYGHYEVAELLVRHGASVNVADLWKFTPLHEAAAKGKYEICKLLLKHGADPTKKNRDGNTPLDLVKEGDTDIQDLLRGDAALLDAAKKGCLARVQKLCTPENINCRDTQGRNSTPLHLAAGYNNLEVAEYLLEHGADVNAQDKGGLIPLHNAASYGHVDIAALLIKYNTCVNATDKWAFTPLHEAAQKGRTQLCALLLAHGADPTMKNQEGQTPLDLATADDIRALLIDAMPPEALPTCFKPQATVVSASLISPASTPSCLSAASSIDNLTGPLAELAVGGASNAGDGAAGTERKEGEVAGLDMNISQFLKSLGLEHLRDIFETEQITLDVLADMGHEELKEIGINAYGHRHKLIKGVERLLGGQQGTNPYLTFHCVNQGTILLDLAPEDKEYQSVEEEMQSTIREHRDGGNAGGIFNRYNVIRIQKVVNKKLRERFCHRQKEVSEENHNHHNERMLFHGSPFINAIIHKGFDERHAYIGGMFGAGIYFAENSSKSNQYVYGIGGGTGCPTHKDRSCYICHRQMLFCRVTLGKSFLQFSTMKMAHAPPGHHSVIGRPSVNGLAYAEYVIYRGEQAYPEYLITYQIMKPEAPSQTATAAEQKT

[2] = tested on: Salmonella typhimurium; test: Genotoxicity in Salmonella typhimurium by microAmes assay in presence of S9 fraction; type: toxicity, organism-based; conditions: salmonella enterica subsp. enterica serovar typhimurium
[3] = Intrinsic clearance in rat liver microsomes; type: ADME; conditions: read-out: CLH
[4] = target: T1, Tankyrase 1/2; test: Inhibition of tankyrase in human SW480 cells assessed as axin2 accumulation after 24 hrs by Hoechst dye-based assay; type: cell-based
[5] = target: C-X-C chemokine receptor type 2 (Homo sapiens, UniProt P25025); test: Binding affinity to CXCR2 (unknown origin)
[6] = target: Cannabinoid receptor 1 (Homo sapiens, UniProt P21554); test: Binding affinity to CB1 receptor (unknown origin)
[7] = tested on: Mus musculus; test: Toxicity in athymic nude mouse assessed as hunched posture at 100 mg/kg, po bid for 8 days; type: organism-based; parameters: dose 100 mg/kg, route oral; conditions: in vivo, 192 h
[8] = tested on: Mus musculus; test: Toxicity in athymic nude mouse assessed as diarrhea at 100 mg/kg, po bid for 8 days; type: organism-based; parameters: dose 100 mg/kg, route oral; conditions: in vivo, 192 h
[9] = tested on: Mus musculus; test: Toxicity in athymic nude mouse assessed as cold at 100 mg/kg, po bid for 8 days; type: organism-based; parameters: dose 100 mg/kg, route oral; conditions: in vivo, 192 h
[10] = target: Histamine H1 receptor (Homo sapiens, UniProt P35367); test: Binding affinity to histamine H1 receptor (unknown origin)
[11] = target: Adenosine receptor A2a (Homo sapiens, UniProt P29274); test: Binding affinity to adenosine A2A receptor (unknown origin)
[12] = Cytotoxicity against human DLD1 cells; type: functional, cell-based; conditions: DLD-1
[13] = tested on: Mus musculus; test: In vivo inhibition of tankyrase in tumor of athymic nude mouse xenografted with human DLD1 cells assessed as axin accumulation at 50 mg/kg, po bid for 3 days; type: functional, organism-based; parameters: dose 50 mg/kg; conditions: DLD-1

Sequence of Adenosine receptor A2a (P29274 whole entry): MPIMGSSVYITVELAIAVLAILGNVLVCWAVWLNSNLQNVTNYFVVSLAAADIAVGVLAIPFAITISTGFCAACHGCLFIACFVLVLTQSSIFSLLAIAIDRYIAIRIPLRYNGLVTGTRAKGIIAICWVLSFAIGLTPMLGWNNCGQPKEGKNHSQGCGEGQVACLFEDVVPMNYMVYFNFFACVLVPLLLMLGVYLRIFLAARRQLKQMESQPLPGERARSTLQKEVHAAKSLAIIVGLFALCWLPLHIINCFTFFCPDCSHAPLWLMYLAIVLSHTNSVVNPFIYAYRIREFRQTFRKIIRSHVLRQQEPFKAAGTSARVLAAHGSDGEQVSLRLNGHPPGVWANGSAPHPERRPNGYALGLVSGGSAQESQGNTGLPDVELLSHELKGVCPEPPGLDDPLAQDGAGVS
Sequence of C-X-C chemokine receptor type 2 (P25025 whole entry): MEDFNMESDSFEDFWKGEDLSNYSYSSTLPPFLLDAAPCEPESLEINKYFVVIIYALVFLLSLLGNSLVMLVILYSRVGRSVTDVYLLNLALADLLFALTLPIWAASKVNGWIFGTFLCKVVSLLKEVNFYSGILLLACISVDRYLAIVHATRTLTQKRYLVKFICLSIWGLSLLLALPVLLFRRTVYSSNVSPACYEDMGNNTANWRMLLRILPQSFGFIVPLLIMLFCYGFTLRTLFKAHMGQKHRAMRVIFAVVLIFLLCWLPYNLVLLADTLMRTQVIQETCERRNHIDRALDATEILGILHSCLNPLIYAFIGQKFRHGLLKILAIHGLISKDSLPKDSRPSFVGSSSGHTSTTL
Sequence of Histamine H1 receptor (P35367 whole entry): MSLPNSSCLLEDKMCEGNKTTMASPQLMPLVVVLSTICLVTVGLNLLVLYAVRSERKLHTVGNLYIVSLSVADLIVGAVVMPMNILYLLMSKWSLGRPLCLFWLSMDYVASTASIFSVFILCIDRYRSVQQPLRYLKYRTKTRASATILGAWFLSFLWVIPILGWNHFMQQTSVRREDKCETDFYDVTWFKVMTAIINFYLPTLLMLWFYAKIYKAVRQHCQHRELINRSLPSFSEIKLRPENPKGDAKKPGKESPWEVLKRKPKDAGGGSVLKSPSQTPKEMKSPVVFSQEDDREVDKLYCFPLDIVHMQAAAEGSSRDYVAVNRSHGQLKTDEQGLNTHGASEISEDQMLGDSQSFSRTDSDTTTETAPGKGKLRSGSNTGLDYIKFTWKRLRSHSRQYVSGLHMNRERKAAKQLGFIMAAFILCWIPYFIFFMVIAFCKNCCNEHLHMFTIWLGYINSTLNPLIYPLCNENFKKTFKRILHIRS
Sequence of Cannabinoid receptor 1 (P21554 whole entry): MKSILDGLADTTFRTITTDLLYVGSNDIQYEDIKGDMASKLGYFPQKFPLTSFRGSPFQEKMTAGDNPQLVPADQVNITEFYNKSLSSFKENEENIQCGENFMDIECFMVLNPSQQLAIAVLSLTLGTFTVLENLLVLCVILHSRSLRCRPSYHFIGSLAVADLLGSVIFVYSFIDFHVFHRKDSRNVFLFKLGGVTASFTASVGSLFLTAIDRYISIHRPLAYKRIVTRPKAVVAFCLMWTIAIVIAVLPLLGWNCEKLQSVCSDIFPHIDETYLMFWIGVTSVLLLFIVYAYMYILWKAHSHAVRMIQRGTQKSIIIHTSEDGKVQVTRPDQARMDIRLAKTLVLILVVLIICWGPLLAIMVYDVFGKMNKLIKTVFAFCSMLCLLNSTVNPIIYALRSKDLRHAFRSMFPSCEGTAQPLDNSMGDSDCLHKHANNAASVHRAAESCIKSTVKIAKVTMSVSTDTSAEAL

Row | SMILES | IC50 [1] [µM] | Activity [2] | microsomal CLint [3] [µL/min/mg] | EC50 [4] [µM] | pIC50 [5] | pIC50 [6] | Activity [7] | Activity [8] | Activity [9] | pIC50 [10] | pIC50 [11] | pIC50 [12] | inhibition [13]
1 | CC1(C)OC(=O)N(c2ccc(-c3cnc(N)c(-c4ncccn4)c3)cc2)[C@H]1c1ccccc1 | 0.233 | Toxic | 48 | 0.709 |  |  |  |  |  |  |  |  | 
2 | CC1(C)OC(=O)N([C@H]2CC[C@H](c3cnc(N)c(-c4ncccn4)c3)CC2)[C@H]1c1ccccc1 |  | Non-toxic |  |  | < 4.31 | < 4.31 | Toxic | Toxic | Toxic | < 4.31 | < 4.31 | 5.52 | Active
